Measurements published in ChEMBL document CHEMBL4017477, “Synthesis and evaluation of 4,6-disubstituted pyrimidines as CNS penetrant pan-muscarinic antagonists with a novel chemotype” (Bioorg Med Chem Lett, 2017).

Experiments:
[1] = molecular target: T1, Muscarinic acetylcholine receptor M4 (Homo sapiens) (UniProt P08173); assay: Antagonist activity at recombinant human M4 receptor expressed in CHO cells co-expressing Gqi5 by calcium mobilization assay relative to acetylcholine; assay type: functional, cell-based
T1 sequence (whole entry): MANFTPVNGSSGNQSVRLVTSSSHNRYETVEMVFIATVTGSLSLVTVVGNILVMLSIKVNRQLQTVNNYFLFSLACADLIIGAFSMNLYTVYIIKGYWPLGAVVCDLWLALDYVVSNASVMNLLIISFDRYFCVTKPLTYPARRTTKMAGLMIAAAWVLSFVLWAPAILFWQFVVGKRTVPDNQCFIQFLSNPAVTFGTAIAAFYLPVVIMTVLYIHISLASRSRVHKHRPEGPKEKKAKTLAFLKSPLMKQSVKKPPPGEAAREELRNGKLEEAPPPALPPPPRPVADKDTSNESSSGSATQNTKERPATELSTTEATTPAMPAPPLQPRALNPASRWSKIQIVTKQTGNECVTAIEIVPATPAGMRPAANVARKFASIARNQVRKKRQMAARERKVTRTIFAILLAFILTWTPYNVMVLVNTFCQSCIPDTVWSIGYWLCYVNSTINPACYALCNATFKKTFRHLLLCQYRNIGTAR

[2] = molecular target: T2, Muscarinic acetylcholine receptor M4 (Homo sapiens, UniProt P08173); assay: Antagonist activity at recombinant human M4 receptor expressed in CHO cells co-expressing Gqi5 by calcium mobilization assay; assay type: functional, cell-based
T2 sequence (P08173 whole entry): T1 sequence (whole entry)

[3] = molecular target: T3, Muscarinic acetylcholine receptor M1 (Homo sapiens) (UniProt P11229); assay: Antagonist activity at recombinant human M1 receptor expressed in CHO cells co-expressing Gqi5 by calcium mobilization assay relative to acetylcholine; assay type: functional, cell-based
T3 sequence (whole entry): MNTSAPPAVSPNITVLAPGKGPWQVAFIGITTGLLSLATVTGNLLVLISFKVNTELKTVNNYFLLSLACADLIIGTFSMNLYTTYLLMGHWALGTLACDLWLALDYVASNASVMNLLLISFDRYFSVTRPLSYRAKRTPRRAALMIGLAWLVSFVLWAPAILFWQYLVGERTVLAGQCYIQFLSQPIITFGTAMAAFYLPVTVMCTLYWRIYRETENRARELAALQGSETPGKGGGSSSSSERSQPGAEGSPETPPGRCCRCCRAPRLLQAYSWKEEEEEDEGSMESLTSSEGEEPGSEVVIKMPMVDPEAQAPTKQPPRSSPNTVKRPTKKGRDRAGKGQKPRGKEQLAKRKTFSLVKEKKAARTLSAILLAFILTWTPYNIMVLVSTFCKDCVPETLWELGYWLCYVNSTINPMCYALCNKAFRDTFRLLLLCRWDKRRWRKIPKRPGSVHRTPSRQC

[4] = Ratio of unbound brain to plasma concentration in rat; assay type: ADME; conditions: brain
[5] = molecular target: T4, Muscarinic acetylcholine receptor M3 (Homo sapiens, UniProt P20309); assay: Antagonist activity at recombinant human M3 receptor expressed in CHO cells co-expressing Gqi5 by calcium mobilization assay; assay type: functional, cell-based
Target sequence in this assay (P20309 whole entry): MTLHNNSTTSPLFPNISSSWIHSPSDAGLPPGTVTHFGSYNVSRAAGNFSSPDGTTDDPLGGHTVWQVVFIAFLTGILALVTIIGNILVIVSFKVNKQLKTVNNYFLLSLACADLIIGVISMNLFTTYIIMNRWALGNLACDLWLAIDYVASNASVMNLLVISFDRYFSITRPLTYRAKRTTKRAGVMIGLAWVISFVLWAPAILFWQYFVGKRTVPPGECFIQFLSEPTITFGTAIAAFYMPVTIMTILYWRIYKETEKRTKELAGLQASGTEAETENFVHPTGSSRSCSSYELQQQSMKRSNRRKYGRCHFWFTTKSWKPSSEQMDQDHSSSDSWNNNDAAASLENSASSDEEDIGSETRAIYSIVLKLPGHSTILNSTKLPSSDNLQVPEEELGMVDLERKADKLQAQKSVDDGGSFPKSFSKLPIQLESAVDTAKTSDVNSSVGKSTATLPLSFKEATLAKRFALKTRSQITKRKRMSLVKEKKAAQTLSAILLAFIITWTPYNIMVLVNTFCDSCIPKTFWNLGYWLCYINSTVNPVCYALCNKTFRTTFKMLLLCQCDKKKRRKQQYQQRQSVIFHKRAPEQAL

[6] = molecular target: T5, Muscarinic acetylcholine receptor M4 (Rattus norvegicus, UniProt P08485); assay: Antagonist activity at rat M4 receptor by calcium mobilization assay; assay type: functional
T5 sequence (P08485 whole entry): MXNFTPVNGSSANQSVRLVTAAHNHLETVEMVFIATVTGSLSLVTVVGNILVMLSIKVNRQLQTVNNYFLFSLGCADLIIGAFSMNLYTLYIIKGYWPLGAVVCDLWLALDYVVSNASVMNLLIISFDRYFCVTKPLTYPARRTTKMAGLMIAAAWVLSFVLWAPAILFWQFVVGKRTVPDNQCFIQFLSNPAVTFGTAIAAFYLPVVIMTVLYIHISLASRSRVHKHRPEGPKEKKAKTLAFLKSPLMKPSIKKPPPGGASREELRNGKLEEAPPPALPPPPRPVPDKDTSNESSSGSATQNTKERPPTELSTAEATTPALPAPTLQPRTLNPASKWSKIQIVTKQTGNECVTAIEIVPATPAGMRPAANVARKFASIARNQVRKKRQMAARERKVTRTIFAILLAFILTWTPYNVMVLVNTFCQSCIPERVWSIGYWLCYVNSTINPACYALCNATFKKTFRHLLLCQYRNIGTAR

[7] = molecular target: T6, Muscarinic acetylcholine receptor M2 (Homo sapiens) (UniProt P08172); assay: Antagonist activity at recombinant human M2 receptor expressed in CHO cells co-expressing Gqi5 by calcium mobilization assay relative to acetylcholine; assay type: functional, cell-based
T6 sequence (whole entry): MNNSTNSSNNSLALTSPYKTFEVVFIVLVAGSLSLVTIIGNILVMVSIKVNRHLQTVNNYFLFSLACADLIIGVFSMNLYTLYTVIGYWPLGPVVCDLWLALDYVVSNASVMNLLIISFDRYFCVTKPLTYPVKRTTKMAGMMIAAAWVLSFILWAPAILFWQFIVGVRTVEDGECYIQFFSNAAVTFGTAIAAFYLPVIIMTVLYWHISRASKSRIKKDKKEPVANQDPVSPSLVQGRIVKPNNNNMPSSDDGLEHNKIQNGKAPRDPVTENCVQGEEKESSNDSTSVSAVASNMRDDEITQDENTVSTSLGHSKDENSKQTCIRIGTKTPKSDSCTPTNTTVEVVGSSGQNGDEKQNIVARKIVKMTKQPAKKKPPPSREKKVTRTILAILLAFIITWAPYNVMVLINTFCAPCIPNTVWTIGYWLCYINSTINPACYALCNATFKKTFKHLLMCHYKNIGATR

[8] = Elimination half life in rat at 0.2 mg/kg administered as iv cassette dose; conditions: in vivo, read-out: beta t1/2 (converted)
[9] = molecular target: T7, Muscarinic acetylcholine receptor M5 (Homo sapiens, UniProt P08912); assay: Antagonist activity at recombinant human M5 receptor expressed in CHO cells co-expressing Gqi5 by calcium mobilization assay; assay type: functional, cell-based
T7 sequence (P08912 whole entry): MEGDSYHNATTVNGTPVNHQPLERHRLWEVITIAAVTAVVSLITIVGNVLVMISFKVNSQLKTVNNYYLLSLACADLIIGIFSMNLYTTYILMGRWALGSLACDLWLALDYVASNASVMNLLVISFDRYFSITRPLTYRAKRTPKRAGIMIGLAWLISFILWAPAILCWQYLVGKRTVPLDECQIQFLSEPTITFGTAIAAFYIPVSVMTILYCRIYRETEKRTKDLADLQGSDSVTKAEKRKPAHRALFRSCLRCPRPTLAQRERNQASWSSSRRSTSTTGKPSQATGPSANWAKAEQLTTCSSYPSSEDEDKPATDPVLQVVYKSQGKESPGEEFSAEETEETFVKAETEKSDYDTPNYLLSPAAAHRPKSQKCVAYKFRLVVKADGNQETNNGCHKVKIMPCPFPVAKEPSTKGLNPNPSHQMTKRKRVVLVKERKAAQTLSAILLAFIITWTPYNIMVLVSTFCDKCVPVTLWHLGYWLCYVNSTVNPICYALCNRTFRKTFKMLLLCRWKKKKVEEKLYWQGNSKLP

[10] = molecular target: T8, Muscarinic acetylcholine receptor M1 (Homo sapiens, UniProt P11229); assay: Antagonist activity at recombinant human M1 receptor expressed in CHO cells co-expressing Gqi5 by calcium mobilization assay; assay type: functional, cell-based
T8 sequence (P11229 whole entry): T3 sequence (whole entry)

[11] = Clearance in rat at 0.2 mg/kg administered as iv cassette dose; conditions: in vivo
[12] = molecular target: T9, Muscarinic acetylcholine receptor M4 (Rattus norvegicus) (UniProt P08485); assay: Antagonist activity at rat M4 receptor by calcium mobilization assay relative to acetylcholine; assay type: functional
T9 sequence (whole entry): T5 sequence (P08485 whole entry)

[13] = Brain to plasma partition coefficient, Kp of the compound in rat; assay type: ADME
[14] = molecular target: T4, Muscarinic acetylcholine receptor M3; assay: Antagonist activity at recombinant human M3 receptor expressed in CHO cells co-expressing Gqi5 by calcium mobilization assay relative to acetylcholine; assay type: functional, cell-based
Target sequence in this assay (P20309 whole entry, looked up): as the sequence (P20309 whole entry) above

[15] = Volume of distribution at steady state in rat at 0.2 mg/kg administered as iv cassette dose; conditions: in vivo, read-out: Vdss
[16] = molecular target: T10, Muscarinic acetylcholine receptor M2 (Homo sapiens, UniProt P08172); assay: Antagonist activity at recombinant human M2 receptor expressed in CHO cells co-expressing Gqi5 by calcium mobilization assay; assay type: functional, cell-based
T10 sequence (P08172 whole entry): T6 sequence (whole entry)

[17] = molecular target: T11, Muscarinic acetylcholine receptor M5 (Homo sapiens) (UniProt P08912); assay: Antagonist activity at recombinant human M5 receptor expressed in CHO cells co-expressing Gqi5 by calcium mobilization assay relative to acetylcholine; assay type: functional, cell-based
T11 sequence (whole entry): T7 sequence (P08912 whole entry)

SMILES: COc1ccc(Oc2cc(N3CCC(C(=O)N4CCc5ccccc5C4)CC3)ncn2)cc1
- Emin [1]: 5.3%
- IC50 ([2]; read-out: IC50): 460 nM

SMILES: O=C(NCc1ccccc1)C1CCN(c2cc(Oc3ccc(F)cc3F)ncn2)CC1
- IC50 ([2]; read-out: IC50): > 10000 nM

SMILES: COc1ccc2c(c1)CN(C(=O)C1CCN(c3cc(Oc4ccc(F)cc4F)ncn3)CC1)CC2
- Emin [1]: 11.8%
- IC50 ([2]; read-out: IC50): 2470 nM
- IC50 ([2]; read-out: pIC50 (converted)): 2400 nM

SMILES: O=C(C1CCN(c2cc(Oc3ccccc3)ncn2)CC1)N1CCc2ccccc2C1
- Emin [1]: 2.7%
- IC50 ([2]; read-out: IC50): 650 nM
- IC50 ([2]; read-out: pIC50 (converted)): 617 nM

SMILES: O=C(C1CCN(c2cc(Oc3ccc(F)cc3F)ncn2)CC1)N1CCc2cc(C(F)(F)F)ccc2C1
- IC50 ([2]; read-out: IC50): > 10000 nM

SMILES: O=C(C1CCN(c2cc(Oc3ccc4c(c3)OCO4)ncn2)CC1)N1CCc2ccccc2C1
- Emin [1]: 4.1%
- IC50 ([2]; read-out: IC50): 510 nM

SMILES: O=C(C1CCN(c2cc(Oc3ccc(Cl)cc3Cl)ncn2)CC1)N1CCc2ccccc2C1
- Emin [1]: 3%
- IC50 ([2]; read-out: IC50): 270 nM

SMILES: COc1ccc2c(c1)CCN(C(=O)C1CCN(c3cc(Oc4ccc(F)cc4F)ncn3)CC1)C2
- Emin [1]: 5.5%
- IC50 ([2]; read-out: IC50): 580 nM
- IC50 ([2]; read-out: pIC50 (converted)): 562 nM

SMILES: O=C(C1CCN(c2cc(Oc3cc(F)ccc3F)ncn2)CC1)N1CCc2ccccc2C1
- Emin [1]: 3.1%
- IC50 ([2]; read-out: IC50): 80 nM

SMILES: O=C(C1CCN(c2cc(Oc3ccc4ccccc4c3)ncn2)CC1)N1CCc2ccccc2C1
- Emin [1]: 6.8%

SMILES: O=C(C1CCN(c2cc(Oc3ccc(F)cc3F)ncn2)CC1)N1Cc2ccccc2C1
- Emin [3]: 18.2%
- K(p,uu,brain) [4]: 0.87
- IC50 [5]: 660 nM
- IC50 ([6]; read-out: IC50): 560 nM
- IC50 ([6]; read-out: pIC50 (converted)): 479 nM
- Emin [7]: 8.7%
- half-life [8]: 3.7 h
- IC50 [9]: 1130 nM
- IC50 [10]: 540 nM
- clearance [11]: 5.37 mL/min/kg
- Emin [12]: 42.7%
- Emin [1]: 18.4%
- Kp [13]: 0.67
- Emin [14]: 2.3%
- Vd [15]: 1.35 L/kg
- IC50 ([2]; read-out: IC50): 340 nM
- IC50 ([2]; read-out: pIC50 (converted)): 324 nM
- IC50 [16]: 520 nM
- Emin [17]: 42.6%

SMILES: O=C(C1CCN(c2cc(Oc3ccc(Cl)cc3F)ncn2)CC1)N1CCc2ccccc2C1
- Emin [1]: 3.1%
- IC50 ([2]; read-out: IC50): 150 nM
